Laboratory results as given in PubChem BioAssay (NCI).
Where “and” joins values, the source holds several entries; their conditions need not be identical. Identical values can stand only once.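 Tested at 5 concentrations; 48 h exposure; 96-well plates; endpoints linearly interpolated, else capped at highest concentration. Here, GI50 denotes the concentration required for 50% inhibition of growth. At the TGI there is no net growth.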

Key:
Experiment in all cases: NCI anticancer screen, dose series, 48 h
[1] = test system: HCC-2998 colon
[2] = test system: HCT-116 colon
[3] = test system: HOP-62 NSCLC
[4] = test system: KM12 colon
[5] = test system: LOX IMVI melanoma
[6] = test system: MALME-3M melanoma
[7] = test system: SK-MEL-2 melanoma
[8] = test system: SK-OV-3 ovarian
[9] = test system: SN12C renal
[10] = test system: SR leukemia

SMILES	GI50 [1] [µM]	TGI [1]	GI50 [2] [µM]	TGI [2]	GI50 [3] [µM]	TGI [3]	GI50 [4] [µM]	TGI [4]	GI50 [5] [µM]	TGI [5]	GI50 [6] [µM]	TGI [6] [µM]	GI50 [7] [µM]	TGI [7]	GI50 [8] [µM]	TGI [8]	GI50 [9] [µM]	TGI [9]	GI50 [10] [µM]	TGI [10] [µM]
N=c1c2c(-c3ccccc3)c(-c3ccccc3)n(Cc3ccccc3)c2ncn1C1CCC(O)CC1 (stereo not given)	1.06	5.03 µM	0.0446	1.75 µM	0.261	14.8 µM	0.327	11.1 µM	0.14	1.69 µM	0.389	1.68	1.08	4.38 µM	2.32	15.7 µM	0.389	16.4 µM	0.034	2.2
COc1ccc(CCN(C)C2CCC(C#N)(c3ccc(OC)c(OC)c3)CC2)cc1OC (stereo not given)		> 100 µM		> 100 µM		> 100 µM		> 100 µM		> 100 µM		> 100		> 100 µM		> 100 µM		> 100 µM		> 100
CC1(C)OC2C(CO[Si](C)(C)C(C)(C)C)OC(n3c(I)c(C#C[Si](C)(C)C)c(=O)[nH]c3=O)C2O1 (stereo not given)	4.52	17.7 µM	1.66	3.37 µM	> 100	> 100 µM	23.2	92.7 µM	3.01	11.1 µM	4.62	18.6	3.78	16.7 µM	> 100	> 100 µM	15.1	37.5 µM	1.42	4.3
CNCCOC(=O)/C=C1\CC[C@H]2[C@@H]([C@@H](O)C(=O)[C@@H]3[C@]2(C)CC[C@H](O)[C@]3(C)C(=O)OC)[C@H]1C	1.35	3.63 µM	0.294	1.03 µM	0.241	0.595 µM	0.564	2.12 µM	0.357	1.38 µM	0.324	1.42	1.79	4.57 µM	0.392	1.36 µM	0.327	1.64 µM	0.244	0.626
NNC(=O)CNc1cccc(Br)c1		> 100 µM		> 100 µM		> 100 µM		> 100 µM		> 100 µM		> 100		> 100 µM		> 100 µM		> 100 µM		> 100
CCOC(=O)Nc1cc2c(c(N)n1)N=C(c1ccccc1)CO2	0.414	8.96 µM	0.084	13.9 µM	0.45	24.3 µM	0.0366	2.11 µM	0.368	> 100 µM	5.11	36.2	41.7	> 100 µM	0.289	9.4 µM	0.84	31.1 µM	0.035	10.1
Cc1nc(N)sc1N=Nc1ccccc1Br		21.7 µM		55.1 µM		78.4 µM		51.1 µM		> 66.1 µM		61		55.2 µM		> 100 µM		57.5 µM		> 100
CC(=O)ON1CCCC(P(=O)(OCCSC(=O)C(C)(C)C)OCCSC(=O)C(C)(C)C)C1=O (stereo not given)	1.42	12.4 µM	0.613	12.7 µM	3.21	> 100 µM	1.21	13.8 µM	1.22	95.5 µM	0.537	9.05	4.47	40 µM	2.86	88 µM	0.36	15 µM	0.571	64.2
COC(=O)/C(=N\NC(N)=S)C(C(=O)OC)C(=O)C(=O)Nc1ccc(C)cc1 (stereo not given)		> 100 µM		> 100 µM		> 100 µM		> 100 µM		> 100 µM		> 100		> 100 µM		> 100 µM		> 100 µM		> 100
Cc1nc(Nc2cccnc2)sc1C(=O)/C=C/c1ccc(F)cc1	4.09	15.5 µM	1.64	4.18 µM	2.61	7.6 µM	2.04	4.61 µM	2.36	6.52 µM	5.55	40	2.86	9.03 µM	3.85	> 100 µM	3.17	> 100 µM	1.69	> 100
CCCC(=O)Nc1cn(COC)c(C(=O)N2C[C@@H]3C[C@]34C2=CC(=O)c2[nH]cc(C)c24)n1	6.23	13.1 µM and 19.1 µM		50 µM and 82.4 µM	3.91	50 µM and 15.2 µM	10.5	> 5 µM and 24.5 µM		21.9 µM and 53.8 µM		6.66	2.98	27.3 µM and 9.29 µM	13.7	28.2 µM and 29.4 µM		30.9 µM and 22.9 µM		0.488
O=C(/C(=C/c1ccc(Cl)cc1)c1ccccc1)c1ccccc1		31.2 µM		27.1 µM		57.5 µM		30.5 µM		29 µM		31.3		36.6 µM		71.7 µM		31.7 µM		45.3
N#Cc1nn(-c2cc(=O)[nH]c3ccc(Cl)cc23)c(N)c1C#N	> 100	> 100 µM	> 100	> 100 µM	> 100	> 100 µM	> 100	> 100 µM	> 100	> 100 µM	> 100	> 100	> 100	> 100 µM	> 100	> 100 µM	> 100	> 100 µM	> 100	> 100
Cc1c(N(C)C)ccc2c(=O)c3cccc(CC(=O)O)c3oc12		> 100 µM		> 100 µM		> 100 µM		> 100 µM		> 100 µM		> 100		> 100 µM		> 100 µM		> 100 µM		> 100
O=C1N=C2Sc3ccc4ccccc4c3N2C1=O		68.7 µM		32.9 µM		39.8 µM		> 100 µM		38.2 µM		47.9		71.9 µM		31.6 µM		43.8 µM		> 100
O=C(/C=C/c1ccc[nH]1)c1ccc(-n2ccc(C(F)(F)F)n2)cc1	> 100	> 100 µM	> 100	> 100 µM	> 100	> 100 µM	0.463	8.95 µM	> 100	> 100 µM	> 100	> 100	> 100	> 100 µM	> 100	> 100 µM	10.1	> 100 µM	9.15	> 100
